# Reference: US5858980A, “Peptide fragments of myelin basic protein” (Autoimmune, Inc., priority 1995, dated 1999)
# B1: PLP: proteolipid protein, myelin autoantigen (protein, UniProt P60201 2-277, looked up)
# Myelin proteolipid protein: GLLECCARCLVGAPFASLVATGLCFFGVALFCGCGHEALTGTEKLIETYFSKNYQDYEYLINVIHAFQYVIYGTASFFFLYGALLLAEGFYTTGAVRQIFGDYKTTICGKGLSATVTGGQKGRGSRGQHQAHSLERVCHCLGKWLGHPDKFVGITYALTVVWLLVFACSAVPVYIYFNTWTTCQSIAFPSKTSASIGSLCADARMYGVLPWNAFPGKVCGSNLLSICKTAEFQMTFHLFIAAFVGAAATLVSLLTFMIAATYNFAVLKLMGRGTKF
# Legend:
# [1] = tested on: short term T-cell lines from peripheral blood mononuclear cells; test: T-cell line reactivity to MBP, PLP and MBP peptides (proliferation assay); assay type: cell-based, human; settings: for mean frequency of T-cell lines reactive to the peptide, MS vs controls (FIG. 1): MS patients compared with combined normal and other neurologic disease controls; for MEAN FREQUENCY Ag REACTIVE LINES: mean +/- SEM
# Procedure: A rapid T-cell cloning technique was used to examine whether there were immunodominant epitopes on human MBP reactive with Class II MHC phenotypes and the frequency of such reactivity. A total of 15,824 short term T-cell lines were generated from 51 human subjects by culturing peripheral blood mononuclear cells ([…]) with purified MBP (100 μg) followed 3 days later, and then every 3-4 days, by the addition of interleukin-2 (IL-2; from ABI, Columbia, Md.) and 2 units recombinant interleukin-4 (IL-4; Genzyme, Boston, Mass.). On Day 13 of culture, an aliquot from each line was tested for reactivity to MBP using the following proliferation assay: T-cell clones (1×10^5 cells/well) were plated in triplicate and cocultured with appropriate stimuli (i.e. 100 μg whole MBP or 5% IL-2) for 72 hours at 37° C., 90% humidity, 5% CO2, in 96 well flat bottomed microtiter plates (Costar). The cells were pulsed with 2 μCi [^3 H]TdR (2 Ci/mmole, New England Nuclear, Boston, Mass.) for the last 18 hours of culture. APCs were prepared by pulsing human Epstein-Barrvirus transformed human B-cells (the virus being commercially available from ATCC) or L-cells which are mouse cells transfected with human DR2 (L-cells are commercially available from ATCC under accession No. ATCC-CCL1 and can be transfected according to the method of Wilkinson, D. et al, J. Exp. Med., 1988, 167:1442-1458 using DNA encoding DR2 as per Wu, S. et al J. Immunol., 1987, 138:2953). B-cells or L-cells were used at 1×10^6 cells/well in complete media either in the presence or absence of 40 pM MBP or phospholipid protein (PLP) for 2 hours at 37° C., washing twice with 4° C. Hanks (Whittaker), followed by irradiation with 5000 rad. at 4° C. To stimulate T-cells without accessory APCs, 2 μM of MBP, PLP, or the appropriate fragment was added directly to the cells for the duration of the culture: 48 hours, followed by pulsing […] and then harvesting. Ten thousand APC's were used for 100,000 T-cell clones.
# T-cell lines shown to be reactive to MBP or PLP were then tested using the same technique for reactivity to overlapping oligopeptide 20-mers encompassing the human MBP sequence as shown in Table 1 above. MBP and PLP reactivity frequency analysis was performed on patients with definite, relapsing-remitting MS (as diagnosed by Magnetic Resonance Imaging (MRI) and clinical examination), as well as on subjects with other neurologic diseases and on normal subjects (all age- and sex-matched to the MS patients).
# [2] = tested on: actively induced EAE; test: suppression of actively induced EAE (MBP/CFA immunization); assay type: in vivo, Lewis rats
# [3] = other neurological disease (n = 10)
molecule,measurement,setting,value
"143-168: human MBP fragment of amino acids 143-168, second immunodominant domain (RHGSKYLATASTMDHARHGFLPRHRD; UniProt P02686 143-168, looked up, fragment)","mean frequency of T-cell lines reactive to the peptide, MS vs controls (FIG. 1)",[1],both MS and control subjects showed high frequencies
same,MBP-reactive cell lines that reacted with either MBP residues 84-102 or 143-168,[1]; cell lines from patients with MS,70-80%
same,MBP-reactive T-cell lines that recognized either the 84-102 or the 143-168 peptide,[1]; control groups,about 34%
same,Peptide Reactivity (Fraction of MBP-Reactive Lines),"[1]; subject NS-dd, stimulus IL-2",1/2
same,Peptide Reactivity (Fraction of MBP-Reactive Lines),"[1]; subject NS-dd, stimulus MBP",6/12
same,Peptide Reactivity (Fraction of MBP-Reactive Lines),"[1]; subject NS-jl, stimulus IL-2",5/12
same,Peptide Reactivity (Fraction of MBP-Reactive Lines),"[1]; subject NS-kw, stimulus MBP",5/8
same,Peptide Reactivity (Fraction of MBP-Reactive Lines),"[1]; subject five, stimulus IL-2",5/6
same,Peptide Reactivity (Fraction of MBP-Reactive Lines),"[1]; subject five, stimulus MBP",6/7
same,Peptide Reactivity (Fraction of MBP-Reactive Lines),"[1]; subject seven, stimulus IL-2",2/3
same,Peptide Reactivity (Fraction of MBP-Reactive Lines),"[1]; subject seven, stimulus MBP",5/8
same,Peptide Reactivity (Fraction of MBP-Reactive Lines),"[1]; subject six, stimulus IL-2",1/2
same,Peptide Reactivity (Fraction of MBP-Reactive Lines),"[1]; subject three, stimulus IL-2",2/2
same,Peptide Reactivity (Fraction of MBP-Reactive Lines),"[1]; subject three, stimulus MBP",2/2
same,Peptide Reactivity (Fraction of MBP-Reactive Lines),"[1]; subject two, stimulus IL-2",4/4
same,Peptide Reactivity (Fraction of MBP-Reactive Lines),"[1]; subject two, stimulus MBP",8/10
"HHPARTAHYGSLPQKSEGRT [61-82, human MBP amino acid residues 61-82]","mean frequency of T-cell lines reactive to the peptide, MS vs controls (FIG. 1)",[1],Significant but less striking increases
"guinea pig MBP peptide 131-150: control guinea pig MBP peptide (DYKSKGFKGAHDAQGTLSKI; UniProt P25188 131-150, looked up, fragment)",suppression of EAE via IV tolerization,[2]; intravenous administration prior to immunization (FIG. 7),did not suppress
same,suppression of EAE via oral tolerization,[2]; oral administration prior to immunization (FIG. 7),did not suppress
B1,#Ag REACTIVE LINES / TOTAL # LINES,[1]; MS patients (n = 23),20/432
same,MEAN FREQUENCY Ag REACTIVE LINES,"[1]; MS patients (n = 23), per-subject reactive/total lines",3.34 ± 1.56
same,#Ag REACTIVE LINES / TOTAL # LINES,[1]; [3],3/384
same,MEAN FREQUENCY Ag REACTIVE LINES,[1]; [3],0.9 ± 0.62
